The term IC50 denotes the concentration that gives 50% inhibition. By inhibition is commonly meant the share of the control response that was lost under treatment.

Each structure is given as a SMILES string. Like-named read-outs stand apart in the source and are kept apart here.

This is an account of results in patent US11292782B2, “Diarylhydantoin compounds and methods of use thereof” (Nuvation Bio Inc., priority 2018, dated 2022).

Common to all, as to assay type: cell-based
Assay [1] deals with GR (Homo sapiens (Human), UniProt P04150). Briefly: GR antagonist assay (GRE-LUC luciferase, transfected COS-7 cells, with 0.1 nM dexamethasone). As to conditions: for IC50 / GR antagonist assay, % of vehicle: in the presence of 0.1 nM dexamethasone; for GR antagonist assay, % of vehicle: 10 μM; for inhibition at 10 µM: COS-7, read-out: GR Antagonism % inhibition at 10 μM. The protocol:
COS-7 cells (ATCC, Manassas, Va.) were plated in 24 well plates in DME+5% csFBS without phenol red at 70,000 cells/well. Once the cells attached to the plates (typically after overnight incubation after plating), they were transfected in OPTIMEM medium (Life Technologies) using lipofectamine reagent (Life Technologies) with 0.25 μg GRE-LUC, 25 ng pCR3.1 GR, and 10 ng CMV-renilla LUC per well. Twenty-four hours after transfection, the cells were fed with DME+5% csFBS without phenol red (Fisher Scientific, Waltham, Mass.) and treated with the test compounds (1 pM to 10 μM dose range) in the presence of 0.1 nM dexamethasone (Sigma, St. Louis, Mo.). Sixteen to twenty-four hours after treatment, a luciferase assay was performed using the Dual Luciferase assay kit (Promega, Madison, Wis.). Firefly luciferase values were normalized to Renilla luciferase numbers.

Assay [2] deals with Human AR (Homo sapiens (Human), UniProt P10275). Put plainly: AR antagonist assay (GRE-LUC luciferase, transfected HEK-293 cells, with 0.1 nM R1881). As to conditions: for IC50: with 0.1 nM R1881; for inhibition at 1 µM: HEK293. The protocol:
Human AR cDNA cloned into pCMV vector, GRE-LUC, and CMV-renilla-LUC were used to transfect cells. HEK-293 cells (ATCC) were plated at 120,000 cells per well of a 24 well plate in DME+5% csFBS (Fisher Scientific, Waltham, Mass.). The cells were transfected using Lipofectamine (Life Technologies, Carlsbad, Calif.) with 0.25 μg GRE-LUC, 0.010 μg CMV-LUC (renilla luciferase) and 25 ng of the AR. […] Luciferase assay was performed 48 hrs after transfection. Firefly luciferase assay values were normalized to renilla luciferase values and were graphed using graphpad prism software (La Jolla, Calif.). […] The IC50 or EC50 values were determined using non-linear regression and […] logistics fitting.

Assay [3] relates to LNCaP-abl cells. Put plainly: Cell proliferation assay, LNCaP-abl (CellTiter-Glo). The following applies: 72 h, 3 days; for activity at 3 µM: read-out: cell proliferation, % of vehicle at 3 μM; for activity at 10 µM: read-out: cell proliferation, % of vehicle at 10 μM. The protocol: LNCaP-abl (3,000 cells/well, received from Dr. Myles Brown, Dana Farber Cancer Institute), 22RV1 (1,000 cells/well), LNCaP (5,000 cells/well), or COS (3,000 cells/well) cells were plated in 96 well plates in 50 μl RPMI+10% FBS (Fisher Scientific, Waltham, Mass.). LNCaP, COS, and 22RV1 cells were obtained from ATCC. Cells were treated in RPMI+10% FBS with test articles, ranging from 1 nM to 10 μM. Three days later, viable cells (LNCaP-abl, 22RV1, and COS) were measured by CellTiter-Glo assay (Promega, Madison, Wis.). For LNCaP cells, medium containing test article was changed after 3 days of treatment, and after an additional 3 days of culture, viable cells were measured by CellTiter-Glo assay.
The LNCaP cell line is androgen responsive with AR and PSA expression. It contains a T877A mutation in the AR. The 22RV1 cell line is positive for AR and PSA with additional AR splice variants and is insensitive to androgen for cell proliferation. The LNCaP-abl cell line expresses both AR and GR but is insensitive to androgen for cell proliferation. COS-7 is used as an AR negative cell line in this experiment.
A general note: Cellular ATP, detected with luciferase, serves as a proxy for viable cell number.

Sequence of GR (P04150 whole entry): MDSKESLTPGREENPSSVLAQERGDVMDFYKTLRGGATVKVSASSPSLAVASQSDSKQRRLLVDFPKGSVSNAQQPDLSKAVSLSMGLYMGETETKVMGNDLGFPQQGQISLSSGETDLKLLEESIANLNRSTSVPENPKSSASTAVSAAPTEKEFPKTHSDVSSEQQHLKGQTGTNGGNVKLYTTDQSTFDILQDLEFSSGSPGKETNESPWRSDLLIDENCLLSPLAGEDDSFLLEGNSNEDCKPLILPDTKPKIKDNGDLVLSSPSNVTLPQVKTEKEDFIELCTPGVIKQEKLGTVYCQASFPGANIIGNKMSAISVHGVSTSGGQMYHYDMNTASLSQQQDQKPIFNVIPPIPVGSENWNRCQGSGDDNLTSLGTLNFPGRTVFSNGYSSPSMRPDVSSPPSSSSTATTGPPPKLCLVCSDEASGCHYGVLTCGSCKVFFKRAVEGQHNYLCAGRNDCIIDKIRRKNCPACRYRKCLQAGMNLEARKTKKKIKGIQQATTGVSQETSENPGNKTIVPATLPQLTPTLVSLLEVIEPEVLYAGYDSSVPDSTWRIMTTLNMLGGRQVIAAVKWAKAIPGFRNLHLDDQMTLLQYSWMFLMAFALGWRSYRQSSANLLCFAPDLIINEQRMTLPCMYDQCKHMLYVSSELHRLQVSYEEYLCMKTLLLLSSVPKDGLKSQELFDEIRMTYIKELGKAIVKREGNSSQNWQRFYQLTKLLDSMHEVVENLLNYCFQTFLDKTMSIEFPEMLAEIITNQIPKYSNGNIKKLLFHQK
Sequence of Human AR (P10275 whole entry): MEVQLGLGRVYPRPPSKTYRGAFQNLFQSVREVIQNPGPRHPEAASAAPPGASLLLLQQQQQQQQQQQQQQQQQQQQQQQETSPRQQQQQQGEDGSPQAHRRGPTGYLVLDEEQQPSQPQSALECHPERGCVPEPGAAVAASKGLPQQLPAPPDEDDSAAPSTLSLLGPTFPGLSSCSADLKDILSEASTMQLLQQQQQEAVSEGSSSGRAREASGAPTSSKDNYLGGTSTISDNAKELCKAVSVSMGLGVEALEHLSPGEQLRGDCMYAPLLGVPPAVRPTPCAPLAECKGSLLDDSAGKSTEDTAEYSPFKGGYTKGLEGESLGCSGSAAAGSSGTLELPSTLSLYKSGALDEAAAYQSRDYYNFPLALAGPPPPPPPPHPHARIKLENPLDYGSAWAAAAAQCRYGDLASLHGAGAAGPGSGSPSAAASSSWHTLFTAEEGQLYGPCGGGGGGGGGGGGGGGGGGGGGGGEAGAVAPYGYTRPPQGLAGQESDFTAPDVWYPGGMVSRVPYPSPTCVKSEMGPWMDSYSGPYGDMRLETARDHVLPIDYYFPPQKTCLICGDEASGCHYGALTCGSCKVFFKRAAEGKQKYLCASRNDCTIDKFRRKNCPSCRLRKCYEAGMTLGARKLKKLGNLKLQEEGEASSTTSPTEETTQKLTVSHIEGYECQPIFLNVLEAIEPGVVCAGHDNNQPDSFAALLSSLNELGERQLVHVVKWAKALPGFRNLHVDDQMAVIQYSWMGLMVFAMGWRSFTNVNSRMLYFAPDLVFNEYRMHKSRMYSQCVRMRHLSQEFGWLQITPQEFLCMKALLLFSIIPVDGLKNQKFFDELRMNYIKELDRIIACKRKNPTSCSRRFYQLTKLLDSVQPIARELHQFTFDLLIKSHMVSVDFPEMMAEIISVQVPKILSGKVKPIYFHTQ

Regarding `CC1(C)C(=O)N(c2ccc(C#N)c(C(F)(F)F)c2)C(=S)N1c1ccc(CNC(=O)c2nccs2)c(F)c1` [Compound 2], the IC50 in assay [1] was more than 10000 nM; in assay [2], 31 nM. In assay [3], the activity at 3 µM was determined as 78%. Besides, the activity at 10 µM in assay [3] turned out to be 71%.

`CC1(C)C(=O)N(c2ccc(C#N)c(C(F)(F)F)c2)C(=O)N1c1ccc(CNC(=O)c2ccccn2)c(F)c1` [Compound 23]: the IC50 in assay [1] was more than 10000 nM. Also, the IC50 in assay [2] amounted to 180 nM. In addition, in assay [3], the activity at 3 µM came out at 84% and the activity at 10 µM amounted to 43%.

`CC1(C)C(=O)N(c2ccc(C#N)c(C(F)(F)F)c2)C(=S)N1c1ccc(CNC(=O)c2cncs2)c(F)c1` [Compound 5]: in assay [1], the IC50 was more than 10000 nM. This compound also came in with an IC50 in assay [2] of 93 nM. Also, in assay [3], the activity at 3 µM is 99% and the activity at 10 µM came to 96%.

With `CC1(C)C(=O)N(c2ccc(C#N)c(C(F)(F)F)c2)C(=O)N1c1ccc(CNC(=O)c2cccnc2)c(F)c1` [Compound 29], the IC50 in assay [1] was more than 10000 nM. The compound also came in with an IC50 in assay [2] of 910 nM. Moreover, in assay [3], the activity at 3 µM is 90% and the activity at 10 µM is 92%.

`Cc1ncsc1C(=O)NCc1ccc(N2C(=S)N(c3ccc(C#N)c(C(F)(F)F)c3)C(=O)C23CCC3)cc1F` [Compound 65]: the results for the 50% inhibitory concentration (IC50) in assay [1] and in assay [2] were more than 10000 nM and 64 nM, respectively. Also, in assay [3], the activity at 3 µM came out at 94%. In addition, in assay [3], the activity at 10 µM came to 83%.

`CC1(C)C(=O)N(c2ccc(C#N)c(C(F)(F)F)c2)C(=S)N1c1ccc(CNC(=O)c2cncnc2)c(F)c1` [Compound 15]: the IC50 in assay [1] was more than 10000 nM. This compound showed an IC50 in assay [2] of 320 nM. Further, in assay [3], the activity at 3 µM stood at 81% and the activity at 10 µM was 70%.

With `Cc1ncsc1C(=O)NCc1ccc(N2C(=S)N(c3cccc(C(F)(F)F)c3)C(=O)C2(C)C)cc1F` [Compound 76, N-(4-(5,5-dimethyl-4-oxo-2-thioxo-3-(3-(trifluoromethyl)phenyl)-imidazolidin-1-yl)-2-fluorobenzyl)-4-methylthiazole-5-carboxamide], the half-maximal inhibitory concentration (IC50) in assay [1] was determined as 3310 nM. The compound also yielded an IC50 in assay [2] of more than 10000 nM. In assay [3], the activity at 3 µM was determined as 72% and the activity at 10 µM turned out to be 88%.

On to `Cc1ccccc1C(=O)NCc1ccc(N2C(=S)N(c3ccc(C#N)c(F)c3)C(=O)C2(C)C)cc1F` [Compound 71], for which, in assay [1], the IC50 was more than 10000 nM. Moreover, in assay [2], the midpoint of inhibition, the IC50, lay at 589 nM. In assay [3], the activity at 3 µM was 86% and the activity at 10 µM turned out to be 81%.

Take `Cn1nccc1C(=O)NCc1ccc(N2C(=S)N(c3ccc(C#N)c(C(F)(F)F)c3)C(=O)C2(C)C)cc1F` [Compound 42]: the IC50 in assay [1] is more than 10000 nM. In assay [2], this compound showed an inhibition at 1 µM of 95% and an IC50 of 77 nM. For the same compound, in assay [3], the activity at 3 µM turned out to be 98% and the activity at 10 µM worked out at 60%.

Consider `CC1(C)C(=O)N(c2ccc(C#N)c(F)c2)C(=S)N1c1ccc(CNC(=O)c2ccccn2)c(F)c1` [Compound 69], for which the figures for the IC50 in assay [1] and in assay [2] were more than 10000 nM and 380 nM, respectively. In assay [3], the activity at 3 µM stood at 77%. In addition, the activity at 10 µM in assay [3] was determined as 81%.

`CC1(C)C(=O)N(c2ccc(C#N)c(C(F)(F)F)c2)C(=S)N1c1ccc(CNC(=O)C2CC2)c(F)c1` [Compound 11]: the IC50 in assay [1] is more than 10000 nM. Further, inhibition in assay [2] was half-maximal at 120 nM (IC50). In assay [3], the activity at 3 µM amounted to 103% and the activity at 10 µM was determined as 79%.

With `Cc1ncsc1C(=O)NCc1ccc(N2C(=S)N(c3ccc(C#N)c(C(F)(F)F)c3)C(=O)C2(C)C)cc1` [Compound 39], the IC50 in assay [1] is more than 10000 nM. In assay [2], this compound had an IC50 of 200 nM. In assay [3], the activity at 3 µM was 90% and the activity at 10 µM turned out to be 87%.

For `Cc1ncsc1C(=O)NCc1ccc(N2C(=S)N(c3ccc(C#N)c(F)c3)C(=O)C2(C)C)cc1F` [Compound 68], the “GR antagonist assay, % of vehicle” value in assay [1] was 84%. In addition, the IC50 in assay [2] was 120 nM. Besides, in assay [3], the activity at 3 µM came out at 89% and the activity at 10 µM was 85%.

Take `Cc1ncsc1C(=O)NCc1ccc(N2C(=S)N(c3cnc(C#N)c(C(F)(F)F)c3)C(=O)C2(C)C)cc1Cl` [Compound 38]: the IC50 in assay [1] is more than 10000 nM. In addition, the IC50 in assay [2] stood at 240 nM. Besides, in assay [3], the activity at 3 µM is 59% and the activity at 10 µM turned out to be 56%.

As to `CC1(C)C(=O)N(c2cnc(C#N)c(C(F)(F)F)c2)C(=S)N1c1ccc(CNC(=O)c2cncs2)c(Cl)c1` [Compound 36], the IC50 in assay [1] was more than 10000 nM; in assay [2], 580 nM. Also, the activity at 3 µM in assay [3] came to 82%. In assay [3], the activity at 10 µM came out at 59%.

With `Cn1nccc1C(=O)NCc1ccc(N2C(=S)N(c3ccc(C#N)c(C(F)(F)F)c3)C(=O)C23CCC3)cc1F` [Compound 73], the IC50 in assay [1] was 2960 nM. Also, the midpoint of inhibition in assay [2], the IC50, lay at 92 nM. In assay [3], the activity at 3 µM came to 79% and the activity at 10 µM stood at 66%.

Turning to `CC1(C)C(=O)N(c2ccc(C#N)c(C(F)(F)F)c2)C(=S)N1c1ccc(CNC(=O)c2cnco2)c(F)c1` [Compound 60], the IC50 in assay [1] was more than 10000 nM; in assay [2], 115 nM. In addition, the activity at 3 µM in assay [3] turned out to be 75%. In assay [3], the activity at 10 µM is 96%.

Consider `CC1(C)C(=O)N(c2ccc(C#N)c(C(F)(F)F)c2)C(=S)N1c1ccc(CN2Cc3ncccc3C2=O)c(F)c1` [Compound 66, 4-(3-(3-fluoro-4-((5-oxo-5H-pyrrolo[3,4-b]pyridin-6(7H)-yl)methyl)phenyl)-4,4-dimethyl-5-oxo-2-thioxoimidazolidin-1-yl)-2-(trifluoromethyl)benzonitrile], for which the “GR antagonist assay, % of vehicle” value in assay [1] is reported as 31%. This compound also came in with an inhibition at 1 µM in assay [2] of 90%.

As to `Cc1ncc(C(=O)NCc2ccc(N3C(=S)N(c4ccc(C#N)c(C(F)(F)F)c4)C(=O)C3(C)C)cc2F)s1` [Compound 45], the IC50 in assay [1] was more than 10000 nM. In assay [2], the inhibition at 1 µM turned out to be 95% and the IC50 amounted to 99 nM. In assay [3], the activity at 3 µM turned out to be 100% and the activity at 10 µM worked out at 66%.

Take `CC1(C)C(=O)N(c2ccc(C#N)c(C(F)(F)F)c2)C(=O)N1c1ccc(CNC(=O)c2cncs2)cc1` [Compound 27]: the IC50 in assay [1] was more than 10000 nM; in assay [2], 496 nM.

In the case of `Cc1ncsc1C(=O)NCc1ccc(N2C(=S)N(c3cnc(C#N)c(C(F)(F)F)c3)C(=O)C2(C)C)cc1F` [Compound 51], the inhibition at 10 µM in assay [1] (10 μM single concentration) amounted to 35%. The compound further came in with an inhibition at 1 µM in assay [2] of 93%.

As for `Cn1cncc1C(=O)NCc1ccc(N2C(=S)N(c3ccc(C#N)c(C(F)(F)F)c3)C(=O)C2(C)C)cc1F` [Compound 44], the IC50 in assay [1] is more than 10000 nM. For the same compound, in assay [2], the 50% inhibitory concentration (IC50) worked out at 120 nM. Moreover, in assay [3], the activity at 3 µM came out at 87% and the activity at 10 µM turned out to be 71%.

With `CC1(C)C(=O)N(c2ccc(C#N)c(C(F)(F)F)c2)C(=S)N1c1ccc(CNC(=O)c2ncc[nH]2)c(F)c1` [Compound 3], the results for the IC50 in assay [1] and in assay [2] were more than 10000 nM and 180 nM, respectively.

Take `CC1(C)C(=O)N(c2cnc(C#N)c(C(F)(F)F)c2)C(=S)N1c1ccc(CNC(=O)c2ncccn2)c(Cl)c1` [Compound 30]: the IC50 in assay [1] was more than 10000 nM; in assay [2], 73 nM.

Regarding `CC(C)C(=O)NCc1ccc(N2C(=S)N(c3ccc(C#N)c(C(F)(F)F)c3)C(=O)C2(C)C)cc1F` [Compound 7], the IC50 in assay [1] was more than 10000 nM. The same compound yielded an IC50 in assay [2] of 180 nM. In addition, in assay [3], the activity at 3 µM was found to be 67% and the activity at 10 µM is 73%.

As to `CC1(C)C(=O)N(c2ccc(C#N)c(C(F)(F)F)c2)C(=O)N1c1ccc(CNC(=O)C2CC2)c(F)c1` [Compound 24], the values for the IC50 in assay [1] and in assay [2] were more than 10000 nM and 1090 nM, respectively.

Take `Cc1ccccc1C(=O)NCc1ccc(N2C(=S)N(c3ccc(C#N)c(C(F)(F)F)c3)C(=O)C2(C)C)cc1F` [Compound 43]: the inhibition at 10 µM in assay [1] came out at 0%. The inhibition at 1 µM in assay [2] worked out at 94%.
